Experimental data from paper PMC9998255 (Archives of Pharmacal Research, 2023).

Legend:
[1] = system: NLRP3 inflammasome; assay type: cell-based, C57BL/6 mice
[2] = system: TAA-induced liver fibrosis; set-up: species or system BALB/c mice; conditions: mouse, in vivo
[3] = 0.5 h, pH 7.4
[4] = 0.5 h, pH 7.4; remark: listed apart in the source
[5] = in vivo; cited from earlier work

## CC(=O)OC[C@H]1O[C@@H]([S-])[C@H](OC(C)=O)[C@@H](OC(C)=O)[C@@H]1OC(C)=O.CCP(CC)CC.[Au+] [auranofin]
[1]
  effect on ATP-induced IL-1β secretion: inhibited ATP-induced IL-1β secretion
[2]
  efficacy on liver fibrosis compared with 10 mg/kg aurocyanide: similar
[3]
  percentage remaining after incubation with human liver microsomes: 6.9%
[4]
  percentage remaining after incubation with mouse liver microsomes: 1.5%
[5]
  fraction absorbed through the gastrointestinal tract: 15–25%
